# Assay results: the supplement of paper PMC6045584
# Compound: C#Cc1cccc(Nc2ncnc3cc(OCCOC)c(OCCOC)cc23)c1 [ERLOTINIB]
# Test: area under dose-response curve of surviving fraction (unscaled, Aref=0) (surviving fraction x log10(nM)); higher = more resistant
# Settings: exposure time: 5 days; dose range 0.5-1000 nM
# Outline: (§1)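 Tumour cell lines in 384-well plates were exposed to eight inhibitor concentrations, from 0.5 to 1000 nM, for five days, and viability was read by CellTiter-Glo luminescence in three screens per line. Signals were normalised to DMSO-only wells, and 3-parameter logistic regression in the drc R package fitted dose-response survival curves to the surviving fractions. Area under the curve is given as the unscaled activity area. That area is taken over log10 dose with Aref = 0.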
row,Test System,area under dose-response curve
1,93VU HEADNECK,2.99
2,A549 LUNG,3.49
3,ASKA SYNOVIAL,3.77
4,BT20 BREAST,3.67
5,BT549 BREAST,3.57
6,HCC38 BREAST,4.24
7,HELA CERVIX,3.61
8,HMT3552 BREAST,3.18
9,HOSMNG BONE,3.19
10,HT1080 SOFT TISSUE,3.44
11,LM7 BONE,3.61
12,MDAMB157 BREAST,3.29
13,OSHN BONE,3.68
14,RDES SOFT TISSUE,4.03
15,SCC36 HEADNECK,2.92
16,SCC90 HEADNECK,2.89
17,SG27 HEADNECK,3.58
18,SG32 HEADNECK,3.57
19,SKBR3 BREAST,3.55
20,SUM44 BREAST,4.26
21,SUM149 BREAST,2.76
22,SUM149.B1*.S BREAST,3.76
23,SUM159 BREAST,3.56
24,VCAP PROSTATE,3.63
25,VP229 BREAST,2.92
26,YAMATO SYNOVIAL,4.34

# Compound: CCC1=C[C@@H]2CN(C1)Cc1c([nH]c3ccccc13)[C@@](C(=O)OC)(c1cc3c(cc1OC)N(C)[C@H]1[C@@](O)(C(=O)OC)[C@H](OC(C)=O)[C@]4(CC)C=CCN5CC[C@]31[C@@H]54)C2 [VINORELBINE]
# Test: as above
# Settings: exposure time: 5 days; dose range 0.5-1000 nM
# Outline: as §1
row,Test System,area under dose-response curve
1,93VU HEADNECK,2.19
2,143B BONE,1.92
3,A549 LUNG,2.2
4,ASKA SYNOVIAL,1.36
5,BT20 BREAST,1.54
6,BT549 BREAST,1.62
7,CME SYNOVIAL,2.33
8,HCC38 BREAST,2.07
9,HCC202 BREAST,1.85
10,HCC1806 BREAST,1.33
11,HELA CERVIX,1.64
12,HMLE3 BREAST,1.81
13,HOSMNG BONE,2.25
14,HS578T BREAST,1.28
15,HT1080 SOFT TISSUE,1.38
16,HU09 BONE,1.47
17,JURKAT HAEMATOPOIETIC AND LYMPHOID TISSUE,1.24
18,LM7 BONE,1.45
19,MDAMB157 BREAST,1.41
20,MDAMB453 BREAST,1.31
21,MG63 BONE,1.86
22,NCIH441 LUNG,2.25
23,NOS1 BONE,1.92

row,Test System,area under dose-response curve
1,OSHN BONE,1.83
2,RDES SOFT TISSUE,1.91
3,S68 BREAST,1.53
4,SAOS2 BONE,1.6
5,SCC36 HEADNECK,1.6
6,SCC47 HEADNECK,1.84
7,SCC90 HEADNECK,1.52
8,SG27 HEADNECK,3.81
9,SG28 HEADNECK,2.47
10,SG31 HEADNECK,2.07
11,SG32 HEADNECK,1.95
12,SIHA CERVIX,2.25
13,SJSA1 BONE,2.09
14,SKBR3 BREAST,1.38
15,SUM44 BREAST,1.61
16,SUM149 BREAST,1.46
17,SUM149.B1*.S BREAST,2.37
18,SUM159 BREAST,1.98
19,VCAP PROSTATE,1.32
20,VP229 BREAST,2
21,YAMATO SYNOVIAL,2.04
22,ZR751 BREAST,1.87

# Compound: CCCS(=O)(=O)Nc1ccc(F)c(C(=O)c2c[nH]c3ncc(Cl)cc23)c1F [PLX-4720]
# Test: as above
# Settings: exposure time: 5 days; dose range 0.5-1000 nM
# Outline: as §1
row,Test System,area under dose-response curve
1,93VU HEADNECK,3.02
2,A549 LUNG,3.13
3,ASKA SYNOVIAL,3.2
4,BT20 BREAST,3
5,BT549 BREAST,3.1
6,CME SYNOVIAL,3.17
7,HCC38 BREAST,3.09
8,HCC202 BREAST,3.8
9,HCC1806 BREAST,2.86
10,HELA CERVIX,3.26
11,HMLE3 BREAST,2.8
12,HS578T BREAST,2.96
13,HT1080 SOFT TISSUE,3.25
14,HU09 BONE,3.1
15,JURKAT HAEMATOPOIETIC AND LYMPHOID TISSUE,3.23
16,LM7 BONE,2.76
17,MDAMB157 BREAST,3.07
18,MDAMB453 BREAST,3.35
19,MG63 BONE,3.07
20,NCIH441 LUNG,3.08

row,Test System,area under dose-response curve
1,NOS1 BONE,3.29
2,OSHN BONE,3.06
3,RDES SOFT TISSUE,2.9
4,S68 BREAST,2.92
5,SAOS2 BONE,3.06
6,SCC36 HEADNECK,2.88
7,SCC47 HEADNECK,3.12
8,SCC90 HEADNECK,3.12
9,SG27 HEADNECK,2.98
10,SG28 HEADNECK,2.51
11,SG31 HEADNECK,2.73
12,SG32 HEADNECK,2
13,SIHA CERVIX,3.18
14,SJSA1 BONE,3.17
15,SKBR3 BREAST,3.02
16,SUM44 BREAST,3.17
17,VCAP PROSTATE,3.22
18,VP229 BREAST,3.1
19,YAMATO SYNOVIAL,2.65
20,ZR751 BREAST,2.73

# Compound: CCN(CC)CCNC(=O)c1c(C)[nH]c(/C=C2\C(=O)Nc3ccc(F)cc32)c1C [SUNITINIB]
# Test: as above
# Settings: exposure time: 5 days; dose range 0.5-1000 nM
# Outline: as §1
row,Test System,area under dose-response curve
1,93VU HEADNECK,2.8
2,143B BONE,3.19
3,A549 LUNG,3.13
4,ASKA SYNOVIAL,2.07
5,BT20 BREAST,2.95
6,BT549 BREAST,3.02
7,CME SYNOVIAL,2.09
